Assay results reported in patent US8410095B2, “Thiazolopyrimidinone derivatives as PI3 kinase inhibitors” (GlaxoSmithKline LLC, priority 2009, dated 2013).

Target: T1, PI3Kδ (Homo sapiens, UniProt O00329)
T1 construct: made in house
Assay: HTRF in vitro profiling assay for PI3K inhibition, delta isoform
Format: biochemical
Details: in at least one experimental run; read-out: IC50 against PI3Kδ
From the text: (§1) HTRF In vitro Profiling Assays for PI3K Inhibition
(§2) The PI3-Kinase profiling assays were developed to measure the compound-dependent inhibition of the alpha, beta, delta, and gamma isoforms of PI3Kin an in vitro catalytic assay. This assay was developed and optimized from a kit produced by Upstate (Millipore catalog #33-017). Briefly, this procedure utilizes a pre-formed HTRF (Homogeneous Time-Resolved Fluorescence energy transfer) complex between four binding partners: 1) biotinylated PIP3, 2) GST tagged pleckstrin homology (PH) domain, 3) Europium labeled anti-GST monoclonal antibody, and 4) Streptavidin-Allophycocyanin (APC). The native PIP3 produced by PI 3-Kinase activity displaces biotin-PIP3 from the PH domain, resulting in the dissociation of the HTRF complex and a decrease in the fluorescence signal. The format of this assay is the same for all 4 isoforms of PI3K; the differences lie in the concentration of enzyme used to achieve the most robust signal. The alpha and delta assays are run at […] enzyme and the gamma assay is run at 1 nM enzyme. In addition, the alpha, beta and delta assays are run with 150 mM NaCl while the gamma assay is run in the absence of NaCl. The ATP concentration is 100 uM in the alpha, beta, and delta assays and 15 uM ATP in the gamma assay. All reactions are run at 10 uM PIP2
(§3) Compounds are serially diluted (3-fold in 100% DMSO) across a 384-well polypropylene mother plate from column I to column 12 and column 13 to column 24, to yield 11 concentrations for each test compound. Columns 6 and 18 contain only DMSO. Once titrations are made, 0.05 μL is transferred to a 384-well low-volume assay plate (Greiner 784076). This assay plate contains three pharmacological controls (known PI3K inhibitors) and 3 assay controls: (1) Enzyme without inhibitor; (2) Buffer minus enzyme, and (3) Buffer minus enzyme plus native PIP3. DMSO is stamped into all wells of columns 6 and 18. PIP3 is added at 40 μM in 1× Reaction buffer (1 μL of 200 μM PIP3) to alternating rows of column 18 (wells 18 B, D, F, H, J, L, N, P). The no-enzyme control reactions are run in wells 18 A, C, E, G, I, K, M, O (0.1 μL of 100% DMSO).
The PI3-Kinase profiling assay was optimized using the HTRF kit provided by Upstate (Millipore). The assay kit contains seven reagents: 1) 4× Reaction Buffer; 2) native PIP2 (substrate); 3) Stop A (EDTA); 4) Stop B (Biotin-PIP3); 5) Detection Mix A (Streptavidin-APC); 6) Detection Mix B (Eu-labeled Anti-GST plus GST-tagged PH-domain); 7) Detection Mix C (KF). In addition, the following items were obtained or purchased: PI3Kinase (prepared by GSK BR&AD), dithiothreitol (Sigma, D-5545), Adenosine-5′-triphosphate (ATP, Teknova cat. #A0220), native PIP3 (1,2-dioctanoyl-sn-glycero-3-[phosphoinositil-3,4,5-triphosphate]tetraammonium salt (Avanti polar lipids, 850186P), DMSO (Sigma, 472301).
PI3Kinase Reaction Buffer is prepared by diluting the stock 1:4 with de-ionized water. Freshly prepared DTT is added at a final concentration of 5 mM on the day of use. Enzyme addition and compound pre-incubation are initiated by the addition of 2.5 μL of PI3K (at twice its final concentration) in 1× reaction buffer to all wells using a Multidrop Combi. Plates are incubated at room temperature for 15 minutes. Reactions are initiated by addition of 2.5 μL of 2× substrate solution (PIP2 and ATP in 1× reaction buffer) using a Multidrop Combi. Plates are incubated at room temperature for one hour. Reactions are quenched by the addition of 2.5 μL of stop solution (Stop A and Stop B pre-mixed at a ratio of 5:1, respectively) to all wells using the Multidrop Combi. […]

T1 sequence (O00329 whole entry): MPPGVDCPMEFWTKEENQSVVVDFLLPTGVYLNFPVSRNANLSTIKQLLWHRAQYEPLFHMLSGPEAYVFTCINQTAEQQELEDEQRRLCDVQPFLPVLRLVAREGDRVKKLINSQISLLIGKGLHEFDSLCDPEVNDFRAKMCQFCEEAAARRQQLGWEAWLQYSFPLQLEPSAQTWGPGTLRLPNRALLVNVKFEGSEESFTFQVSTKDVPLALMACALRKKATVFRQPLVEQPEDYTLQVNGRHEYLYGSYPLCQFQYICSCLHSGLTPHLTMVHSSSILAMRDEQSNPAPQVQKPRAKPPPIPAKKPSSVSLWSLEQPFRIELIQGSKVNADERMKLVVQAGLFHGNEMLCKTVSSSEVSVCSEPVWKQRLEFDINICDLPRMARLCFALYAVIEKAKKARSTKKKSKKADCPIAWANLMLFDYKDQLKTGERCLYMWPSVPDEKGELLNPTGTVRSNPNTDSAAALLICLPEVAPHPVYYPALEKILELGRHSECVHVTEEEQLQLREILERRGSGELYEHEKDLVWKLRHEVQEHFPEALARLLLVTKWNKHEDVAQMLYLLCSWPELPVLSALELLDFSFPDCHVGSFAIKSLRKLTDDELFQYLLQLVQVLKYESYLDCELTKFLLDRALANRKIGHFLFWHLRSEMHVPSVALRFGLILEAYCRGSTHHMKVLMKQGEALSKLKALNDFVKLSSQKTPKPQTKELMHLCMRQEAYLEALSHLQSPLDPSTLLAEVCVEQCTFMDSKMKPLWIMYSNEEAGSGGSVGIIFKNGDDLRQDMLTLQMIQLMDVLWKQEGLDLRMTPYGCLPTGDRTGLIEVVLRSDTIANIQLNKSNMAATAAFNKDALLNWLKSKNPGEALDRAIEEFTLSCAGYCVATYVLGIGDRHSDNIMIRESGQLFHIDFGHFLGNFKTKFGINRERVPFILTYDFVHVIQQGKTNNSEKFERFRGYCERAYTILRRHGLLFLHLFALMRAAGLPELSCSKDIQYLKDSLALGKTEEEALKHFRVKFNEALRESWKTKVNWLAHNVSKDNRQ
T1 sequence (P27986 2-724 partner limits assumed): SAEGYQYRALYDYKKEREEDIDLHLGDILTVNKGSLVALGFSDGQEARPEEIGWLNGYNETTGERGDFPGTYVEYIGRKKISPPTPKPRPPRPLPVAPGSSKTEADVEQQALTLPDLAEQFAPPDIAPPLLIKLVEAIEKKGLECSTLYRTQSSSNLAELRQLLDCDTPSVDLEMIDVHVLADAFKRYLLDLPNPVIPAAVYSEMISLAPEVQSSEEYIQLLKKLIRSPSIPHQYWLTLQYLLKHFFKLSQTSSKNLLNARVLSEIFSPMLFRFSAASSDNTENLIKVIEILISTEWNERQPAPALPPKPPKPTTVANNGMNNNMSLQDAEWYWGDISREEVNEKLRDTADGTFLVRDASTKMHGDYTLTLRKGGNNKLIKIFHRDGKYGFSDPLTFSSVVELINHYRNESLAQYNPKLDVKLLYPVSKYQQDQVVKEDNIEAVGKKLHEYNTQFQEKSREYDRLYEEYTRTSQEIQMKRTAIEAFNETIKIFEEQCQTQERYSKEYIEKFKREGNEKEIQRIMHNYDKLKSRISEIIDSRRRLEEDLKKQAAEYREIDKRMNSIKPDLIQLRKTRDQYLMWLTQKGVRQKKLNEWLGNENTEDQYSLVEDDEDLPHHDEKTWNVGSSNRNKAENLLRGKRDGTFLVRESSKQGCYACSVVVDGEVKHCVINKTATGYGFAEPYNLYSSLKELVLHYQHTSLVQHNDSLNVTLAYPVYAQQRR

IC50 | SMILES
8 nM | N#Cc1cccc(Cn2cnc(=O)c3sc(N4CCOCC4)nc32)c1 [Example 20, 3-{[2-(4-morpholinyl)-7-oxo[1,3]thiazolo[4,5-d]pyrimidin-4(7H)-yl]methyl}benzonitrile]

Same assay, conditions: in at least one experimental run; read-out: pIC50 against PI3Kδ (converted)

IC50 | SMILES
0.158 nM | CCc1nc(=O)c2sc(N3CCOCC3)nc2n1Cc1cccc(Cl)c1C [Example 75, 4-[(3-chloro-2-methylphenyl)methyl]-5-ethyl-2-(4-morpholinyl)[1,3]thiazolo[4,5-d]pyrimidin-7(4H)-one]
50.1 nM | Cc1c(Cn2c(-c3ccccc3)nc(=O)c3sc(N4CCOCC4)nc32)cccc1C(F)(F)F [Example 79, 4-{[2-methyl-3-(trifluoromethyl)phenyl]methyl}-2-(4-morpholinyl)-5-phenyl[1,3]thiazolo[4,5-d]pyrimidin-7(4H)-one]
1.26 nM | Cc1c(Cl)cccc1Cn1c(C2CCCO2)nc(=O)c2sc(N3CCOCC3)nc21 (stereo not drawn) [Example 83, 4-[(3-chloro-2-methylphenyl)methyl]-2-(4-morpholinyl)-5-(tetrahydro-2-furanyl)[1,3]thiazolo[4,5-d]pyrimidin-7(4H)-one]
0.126 nM | Cc1c(Cl)cccc1Cn1c(CO)nc(=O)c2sc(N3CCOCC3)nc21 [Example 84, 4-[(3-chloro-2-methylphenyl)methyl]-5-(hydroxymethyl)-2-(4-morpholinyl)[1,3]thiazolo[4,5-d]pyrimidin-7(4H)-one]
2.51 nM | Cc1c(Cl)cccc1Cn1c(CN)nc(=O)c2sc(N3CCOCC3)nc21 [Example 111, 5-(aminomethyl)-4-[(3-chloro-2-methylphenyl)methyl]-2-(4-morpholinyl)[1.3]thiazolo[4,5-d]pyrimidin-7(4H)-one]

Target: T2, PI3Kβ (Homo sapiens, UniProt P42338)
T2 construct: made in house
T2 sequence (P42338 whole entry): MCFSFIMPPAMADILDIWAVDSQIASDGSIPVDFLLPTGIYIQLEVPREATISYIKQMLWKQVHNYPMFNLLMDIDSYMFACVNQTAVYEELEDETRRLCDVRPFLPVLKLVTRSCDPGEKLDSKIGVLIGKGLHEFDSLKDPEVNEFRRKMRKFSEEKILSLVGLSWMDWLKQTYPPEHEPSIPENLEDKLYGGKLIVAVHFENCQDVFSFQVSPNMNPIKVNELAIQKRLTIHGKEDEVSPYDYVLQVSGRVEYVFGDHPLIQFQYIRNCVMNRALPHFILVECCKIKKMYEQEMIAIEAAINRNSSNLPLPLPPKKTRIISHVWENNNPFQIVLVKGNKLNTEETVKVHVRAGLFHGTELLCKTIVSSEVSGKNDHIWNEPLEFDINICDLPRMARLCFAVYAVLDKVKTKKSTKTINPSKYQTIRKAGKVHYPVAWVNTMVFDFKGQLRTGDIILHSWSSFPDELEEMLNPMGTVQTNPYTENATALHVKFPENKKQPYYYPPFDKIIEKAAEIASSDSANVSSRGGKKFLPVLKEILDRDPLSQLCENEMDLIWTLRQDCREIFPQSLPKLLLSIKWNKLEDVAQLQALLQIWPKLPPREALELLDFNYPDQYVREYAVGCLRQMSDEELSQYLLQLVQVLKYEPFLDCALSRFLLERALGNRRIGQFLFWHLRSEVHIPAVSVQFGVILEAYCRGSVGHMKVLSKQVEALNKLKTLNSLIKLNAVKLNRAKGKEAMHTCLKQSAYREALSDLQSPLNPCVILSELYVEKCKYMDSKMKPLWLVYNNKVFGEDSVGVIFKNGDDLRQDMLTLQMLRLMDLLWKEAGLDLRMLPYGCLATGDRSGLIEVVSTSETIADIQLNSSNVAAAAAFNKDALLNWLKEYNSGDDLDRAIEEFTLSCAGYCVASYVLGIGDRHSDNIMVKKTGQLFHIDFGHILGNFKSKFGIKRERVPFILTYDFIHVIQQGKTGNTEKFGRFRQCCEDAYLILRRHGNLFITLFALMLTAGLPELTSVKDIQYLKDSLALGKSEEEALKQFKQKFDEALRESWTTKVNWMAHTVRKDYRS
T2 sequence (P27986 whole entry partner): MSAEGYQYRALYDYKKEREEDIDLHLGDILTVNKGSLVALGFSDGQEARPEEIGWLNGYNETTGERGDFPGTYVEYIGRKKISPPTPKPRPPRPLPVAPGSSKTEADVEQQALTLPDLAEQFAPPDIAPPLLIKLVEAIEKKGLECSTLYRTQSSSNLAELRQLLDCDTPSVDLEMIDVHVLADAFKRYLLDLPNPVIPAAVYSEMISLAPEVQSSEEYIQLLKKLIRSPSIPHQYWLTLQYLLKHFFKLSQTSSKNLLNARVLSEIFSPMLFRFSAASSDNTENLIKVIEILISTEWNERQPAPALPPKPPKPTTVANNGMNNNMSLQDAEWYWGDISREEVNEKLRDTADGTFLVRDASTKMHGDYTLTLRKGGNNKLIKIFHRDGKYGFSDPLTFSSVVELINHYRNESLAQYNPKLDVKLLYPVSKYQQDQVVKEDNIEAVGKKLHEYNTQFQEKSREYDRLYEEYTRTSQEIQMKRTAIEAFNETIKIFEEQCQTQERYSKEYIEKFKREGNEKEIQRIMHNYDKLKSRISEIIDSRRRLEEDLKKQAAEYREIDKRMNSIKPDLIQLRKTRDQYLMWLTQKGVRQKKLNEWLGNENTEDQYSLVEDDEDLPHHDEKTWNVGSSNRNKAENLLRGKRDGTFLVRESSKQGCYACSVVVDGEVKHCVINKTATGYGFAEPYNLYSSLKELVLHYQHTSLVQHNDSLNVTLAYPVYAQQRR
Assay: HTRF in vitro profiling assay for PI3K inhibition, beta isoform
Format: biochemical
Details: in at least one experimental run; read-out: IC50 against PI3Kβ
From the text: as §1, §2
as §3, with “The no-enzyme control reactions are run in wells 18 A, C, E, G, I, K, M, O (0.1 μL of 100% DMSO).” left out

IC50 | SMILES
320 nM | O=c1ncn(Cc2ccccc2C(F)(F)F)c2nc(N3CCOCC3)sc12 [Example 1, 2-(4-morpholinyl)-4-{[2(trifluoromethyl)phenyl]methyl}[1,3]thiazolo[4,5-d]pyrimidin-7(4H)-one]
400 nM | Cc1c(Cl)cccc1Cn1cnc(=O)c2sc(N3CCOCC3)nc21 [Example 3, 4-[(3-chloro-2-methylphenyl)methyl]-2-(4-morpholinyl)[1,3]thiazolo[4,5-d]pyrimidin-7(4H)-one]
0.5 nM | Cc1c(Cn2c(C)nc(=O)c3sc(N4CCOCC4)nc32)cccc1C(F)(F)F [Example 59, 5-methyl-4-{[2-methyl-3-(trifluoromethyl)phenyl]methyl}-2-(4-morpholinyl)[1,3]thiazolo[4,5-d]pyrimidin-7(4H)-one]
